Measured values from US20210338681A1, “COMBINATION THERAPIES” (SECURA BIO, INC., priority 2018, published 2021).
Entries after “also recorded” stand apart in the source; their conditions may differ.

What was measured:
human macrophages [1] = assay: Phagocytosis of CTV-labelled Raji cells by human monocyte-derived macrophages with anti-CD47 clone 5F9, flow cytometry-based assay (Example 2); assay type: cell-based; settings: 3000 nM duvelisib during last 3 days of differentiation; CD47 blocking antibody clone 5F9 300 ng/ml, 2 hours; compared to duvelisib or anti-CD47 alone; FIG. 2
Experimental: PBMC were isolated using a density gradient from healthy donor blood samples. CD14+ monocytes were then separated using magnetic selection and differentiated into MO macrophages for 6 days in the presence of M-CSF. Duvelisib (3000 nM) or vehicle (DMSO) were added during the last 3 days of differentiation. Raji cells (ATCC® CCL-86™), which are positive for surface expression of CD47, were labelled with cell trace violet (CTV). These cells were then offered to the macrophage cultures in the presence of CD47 blocking antibody at 300 ng/ml (clone 5F9) for 2 hours to allow phagocytosis to occur. The effect of duvelisib on the capacity of macrophages to phagocytose target cells was determined in a flow cytometry-based assay.

human macrophages [2] = assay: Phagocytosis of CTV-labelled DLD-1 and Raji cells by human monocyte-derived macrophages, flow cytometry-based assay (Example 1); assay type: cell-based; settings: FIG. 1
Experimental: PBMC were isolated using a density gradient from healthy donor blood samples. CD14+ monocytes were then separated using magnetic selection and differentiated into MO macrophages for 6 days in the presence of M-CSF and 3000 nM of duvelisib or vehicle (DMSO). Two cell lines positive for surface expression of CD47, DLD-1 (ATCC® CCL-221™) and Raji cells (ATCC® CCL-86™), were labelled with cell trace violet (CTV). These were then offered to the macrophage cultures in the presence of duvelisib or vehicle control for 4 hours to allow phagocytosis to occur. For the part of the assay where a CD47 blocking antibody and an opsonizing antibody were used, CD47 blocking antibody at 1 μg/ml (clone B6H12) and rituximab (for Raji cells) or cetuximab (for DLD-1 cells) at 1 μg/ml were added during the 4 hours co-culture. The effect of duvelisib on the capacity of macrophages to phagocytose target cells was determined in a flow cytometry-based assay.

Compound: C[C@H](Nc1ncnc2[nH]cnc12)c1cc2cccc(Cl)c2c(=O)n1-c1ccccc1 [duvelisib, (S)-3-(1-((9H-purin-6-yl)amino)ethyl)-8-chloro-2-phenylisoquinolin-1(2H)-one]
- phagocytosis of Raji Burkitt's lymphoma cells by human macrophages, duvelisib in combination with anti-CD47 (clone 5F9) (human macrophages [1]): enhances phagocytosis; also recorded: increasing phagocytosis
- phagocytosis by human macrophages, duvelisib as a single agent (human macrophages [2]; 3000 nM duvelisib vs vehicle (DMSO) during 6 days differentiation with M-CSF and 4 hours co-culture, target cells DLD-1 and Raji, two representative donors per condition): increases phagocytosis; also recorded: increasing phagocytosis
- phagocytosis by human macrophages, duvelisib in combination with anti-CD47 (clone B6H12) and an opsonizing antibody (human macrophages [2]; 3000 nM duvelisib, CD47 blocking antibody clone B6H12 1 μg/ml plus rituximab (Raji cells) or cetuximab (DLD-1 cells) 1 μg/ml during 4 hours co-culture): increases phagocytosis; also recorded: increasing phagocytosis
